Experimental data from patent US12692261B2, “Substituted heterocyclic compounds and therapeutic uses thereof” (Bayer Aktiengesellschaft, priority 2020, dated 2026).
Read-outs that look alike come from different tables or passages of the source.

Assays:
[1] = target: T1, wild-type Epidermal Growth Factor Receptor (EGFR) (Homo sapiens, UniProt P00533); test: WT-EGFR Kinase Assay (TR-FRET, 2 mM ATP); type: biochemical
T1 construct: a fragment of human EGFR (amino acids R669 to A1210); made in house; host or cells: Sf9 insect cells
T1 sequence (P00533 669-1210): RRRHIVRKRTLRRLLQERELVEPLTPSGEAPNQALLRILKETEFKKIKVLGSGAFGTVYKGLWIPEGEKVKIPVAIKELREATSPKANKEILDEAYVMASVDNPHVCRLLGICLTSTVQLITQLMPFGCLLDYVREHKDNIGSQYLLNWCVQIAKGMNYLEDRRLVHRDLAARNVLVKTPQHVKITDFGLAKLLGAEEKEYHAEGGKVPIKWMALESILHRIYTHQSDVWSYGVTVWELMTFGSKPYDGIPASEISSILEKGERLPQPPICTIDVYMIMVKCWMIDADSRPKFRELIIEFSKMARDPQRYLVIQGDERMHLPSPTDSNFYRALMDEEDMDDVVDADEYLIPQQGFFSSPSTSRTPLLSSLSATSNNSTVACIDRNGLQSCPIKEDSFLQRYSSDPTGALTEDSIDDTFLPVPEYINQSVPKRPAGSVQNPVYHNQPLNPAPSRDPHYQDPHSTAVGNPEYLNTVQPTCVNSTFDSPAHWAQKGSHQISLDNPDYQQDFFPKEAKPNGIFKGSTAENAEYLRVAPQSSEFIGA
Procedure, shortened: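 GST-fused human EGFR fragment (R669-A1210) from Sf9 cells, typically 7.6 pg/μL, pre-incubated with compound 15 min at 22° C in Hepes pH 7.0 buffer with MgCl2, DTT and vanadate; biotinylated peptide substrate. After EDTA stop, phosphopeptide detected by TR-FRET (anti-phosphotyrosine Tb-cryptate/streptavidin-XL665), 665/620 nm emission ratio.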

[2] = target: T2, full-length human CSNK1A1 (Homo sapiens, UniProt P48729); test: CSNK1A1 High ATP Assay (ADP-Glo, 1 mM ATP); type: biochemical; conditions: Table 3, read-out: CSNK1A1 high ATP assay IC50 [mol/l] (median);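 note: 30 min kinase reaction at 22 °C with 100 µM peptide substrate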
T2 construct: N-terminal Glutathion-S-Transferase (GST) and full-length human CSNK1A1; purchased Life Technologies PV4174; host or cells: baculovirus infected insect cells
T2 sequence (P48729 whole entry): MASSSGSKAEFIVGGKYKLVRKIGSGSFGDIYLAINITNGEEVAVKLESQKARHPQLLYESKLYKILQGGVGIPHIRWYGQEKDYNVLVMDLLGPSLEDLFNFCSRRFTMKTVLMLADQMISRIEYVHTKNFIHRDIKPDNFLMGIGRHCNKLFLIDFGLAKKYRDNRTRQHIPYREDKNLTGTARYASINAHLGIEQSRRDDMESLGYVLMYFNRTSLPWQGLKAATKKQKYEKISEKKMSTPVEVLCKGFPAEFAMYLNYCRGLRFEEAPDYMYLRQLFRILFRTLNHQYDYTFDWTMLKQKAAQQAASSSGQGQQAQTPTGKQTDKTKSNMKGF
Procedure, shortened: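 Kinase activity taken as ADP generated, quantified by ADP-Glo luminescence after 1 h ATP depletion and 1 h detection at 22 °C. Enzyme is GST–full-length human CSNK1A1 (insect cell-expressed), pre-bound to compound for 15 min, with phosphopeptide substrate and 1 mM ATP.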

[3] = EGFR Wildtyp 2 mM ATP IC50 [mol/l] (median), Table 4
[4] = read-out: EGFR Wildtyp 2 mM ATP IC50 [mol/l] (median), Table 4

| Structure (SMILES) | IC50 [1, 3] [µM] | IC50 [2] [µM] | IC50 [1, 4] [µM] |
| --- | --- | --- | --- |
| O=C(Nc1cc(-c2[nH]c3c(CC4CC4)cc(F)nc3c2-c2ccccn2)ccn1)C(CC(F)F)c1ccc(F)cc1 (single isomer, unassigned) [Example 47, (2R or S)—N-{4-[7-(cyclopropylmethyl)-5-fluoro-3-(pyridin-2-yl)-1H-pyrrolo[3,2-b]pyridin-2-yl]pyridin-2-yl}-4,4-difluoro-2-(4-fluorophenyl)butanamide] | > 20 | 0.0316 | – |
| O=C(Nc1cc(-c2[nH]c3c(CC4CC4)cc(F)nc3c2-c2ccccn2)ccn1)C(CC(F)F)c1ccc(F)cc1 (single isomer, unassigned) [Example 48, (2R or S)—N-{4-[7-(cyclopropylmethyl)-5-fluoro-3-(pyridin-2-yl)-1H-pyrrolo[3,2-b]pyridin-2-yl]pyridin-2-yl}-4,4-difluoro-2-(4-fluorophenyl)butanamide] | – | 0.00991 | > 20 |
| O=C(Nc1cc(-c2[nH]c3c(N4CCNCC4)ccnc3c2-c2ccccn2)ccn1)C(CC(F)F)c1ccc(F)cc1 (single isomer, unassigned) [Example 93, (2R or S)-4,4-difluoro-2-(4-fluorophenyl)-N-{4-[7-(piperazin-1-yl)-3-(pyridin-2-yl)-1H-pyrrolo[3,2-b]pyridin-2-yl]pyridin-2-yl}butanamide] | > 20 | 0.00535 | – |
| O=C(Nc1cc(-c2[nH]c3c(N4CCNCC4)ccnc3c2-c2ccccn2)ccn1)C(CC(F)F)c1ccc(F)cc1 (single isomer, unassigned) [Example 94, (2R or S)-4,4-difluoro-2-(4-fluorophenyl)-N-{4-[7-(piperazin-1-yl)-3-(pyridin-2-yl)-1H-pyrrolo[3,2-b]pyridin-2-yl]pyridin-2-yl}butanamide] | – | 0.00231 | > 20 |
| O=C(Nc1cc(-c2[nH]c3ccc(F)nc3c2-c2cc(F)ccn2)ccn1)C(CC(F)F)c1ccc(F)cc1 (single isomer, unassigned) [Example 96, (2R or S)-4,4-difluoro-N-{4-[5-fluoro-3-(4-fluoropyridin-2-yl)-1H-pyrrolo[3,2-b]pyridin-2-yl]pyridin-2-yl}-2-(4-fluorophenyl)butanamide] | > 20 | 0.00467 | – |
| O=C(Nc1cc(-c2[nH]c3ccc(F)nc3c2-c2cc(F)ccn2)ccn1)C(CC(F)F)c1ccc(F)cc1 (single isomer, unassigned) [Example 97, (2R or S)-4,4-difluoro-N-{4-[5-fluoro-3-(4-fluoropyridin-2-yl)-1H-pyrrolo[3,2-b]pyridin-2-yl]pyridin-2-yl}-2-(4-fluorophenyl)butanamide] | – | 0.036 | > 20 |
| CC(C)(O)c1cc(F)nc2c(-c3ccccn3)c(-c3ccnc(NC(=O)C(CC(F)F)c4ccc(F)cc4)c3)[nH]c12 (single isomer, unassigned) [Example 99, (2R or S)-4,4-difluoro-N-{4-[5-fluoro-7-(2-hydroxypropan-2-yl)-3-(pyridin-2-yl)-1H-pyrrolo[3,2-b]pyridin-2-yl]pyridin-2-yl}-2-(4-fluorophenyl)butanamide] | > 20 | 0.00355 | – |
| CC(C)(O)c1cc(F)nc2c(-c3ccccn3)c(-c3ccnc(NC(=O)C(CC(F)F)c4ccc(F)cc4)c3)[nH]c12 (single isomer, unassigned) [Example 100, (2R or S)-4,4-difluoro-N-{4-[5-fluoro-7-(2-hydroxypropan-2-yl)-3-(pyridin-2-yl)-1H-pyrrolo[3,2-b]pyridin-2-yl]pyridin-2-yl}-2-(4-fluorophenyl)butanamide] | – | 0.0336 | > 20 |
| COc1cnc2c(-c3ccccn3)c(-c3ccnc(NC(=O)C(CC(F)F)c4ccc(F)cc4)c3)[nH]c2n1 (single isomer, unassigned) [Example 102, 4,4-difluoro-2-(4-fluorophenyl)-N-{4-[3-methoxy-7-(pyridin-2-yl)-5H-pyrrolo[2,3-b]pyrazin-6-yl]pyridin-2-yl}butanamide] | > 20 | 0.0311 | – |
| COc1cnc2c(-c3ccccn3)c(-c3ccnc(NC(=O)C(CC(F)F)c4ccc(F)cc4)c3)[nH]c2n1 (single isomer, unassigned) [Example 103, 4,4-difluoro-2-(4-fluorophenyl)-N-{4-[3-methoxy-7-(pyridin-2-yl)-5H-pyrrolo[2,3-b]pyrazin-6-yl]pyridin-2-yl}butanamide] | – | 0.00197 | > 20 |
| O=C(Nc1cc(-c2[nH]c3c(C4CCCO4)cc(F)nc3c2-c2ccccn2)ccn1)C(CC(F)F)c1ccc(F)cc1 (single isomer, unassigned) [Example 115, (2R or S)-4,4-difluoro-N-(4-{5-fluoro-7-[(2R or S)-oxolan-2-yl]-3-(pyridin-2-yl)-1H-pyrrolo[3,2-b]pyridin-2-yl}pyridin-2-yl)-2-(4-fluorophenyl)butanamide] | 19.6 | 0.0231 | – |
| O=C(Nc1cc(-c2[nH]c3c(C4CCCO4)cc(F)nc3c2-c2ccccn2)ccn1)C(CC(F)F)c1ccc(F)cc1 (single isomer, unassigned) [Example 116, (2R or S)-4,4-difluoro-N-(4-{5-fluoro-7-[(2R or S)-oxolan-2-yl]-3-(pyridin-2-yl)-1H-pyrrolo[3,2-b]pyridin-2-yl}pyridin-2-yl)-2-(4-fluorophenyl)butanamide] | 15.1 | 0.0132 | – |
| O=C(Nc1cc(-c2[nH]c3c(C4CCCO4)cc(F)nc3c2-c2ccccn2)ccn1)C(CC(F)F)c1ccc(F)cc1 (single isomer, unassigned) [Example 117, (2R or S)-4,4-difluoro-N-(4-{5-fluoro-7-[(2R or S)-oxolan-2-yl]-3-(pyridin-2-yl)-1H-pyrrolo[3,2-b]pyridin-2-yl}pyridin-2-yl)-2-(4-fluorophenyl)butanamide] | > 20 | 3.57 | – |
| O=C(Nc1cc(-c2[nH]c3c(C4CCCO4)cc(F)nc3c2-c2ccccn2)ccn1)C(CC(F)F)c1ccc(F)cc1 (single isomer, unassigned) [Example 118, (2R or S)-4,4-difluoro-N-(4-{5-fluoro-7-[(2R or S)-oxolan-2-yl]-3-(pyridin-2-yl)-1H-pyrrolo[3,2-b]pyridin-2-yl}pyridin-2-yl)-2-(4-fluorophenyl)butanamide] | > 20 | 6.66 | – |
| O=C(Nc1cc(-c2[nH]c3nccnc3c2-c2ccccn2)ccn1)C(CC(F)(F)F)c1ccc(F)cc1 (single isomer, unassigned) [Example 120, (2R or S)-4,4,4-trifluoro-2-(4-fluorophenyl)-N-{4-[7-(pyridin-2-yl)-5H-pyrrolo[2,3-b]pyrazin-6-yl]pyridin-2-yl}butanamide] | > 20 | 0.0358 | – |
| O=C(Nc1cc(-c2[nH]c3nccnc3c2-c2ccccn2)ccn1)C(CC(F)(F)F)c1ccc(F)cc1 (single isomer, unassigned) [Example 121, (2R or S)-4,4,4-trifluoro-2-(4-fluorophenyl)-N-{4-[7-(pyridin-2-yl)-5H-pyrrolo[2,3-b]pyrazin-6-yl]pyridin-2-yl}butanamide] | – | 0.946 | > 20 |
| O=C(Nc1cc(-c2[nH]c3c(OCC(F)(F)F)ncnc3c2-c2ccccn2)ccn1)C(CC(F)F)c1ccc(F)cc1 (single isomer, unassigned) [Example 123, (2R or S)-4,4-difluoro-2-(4-fluorophenyl)-N-{4-[7-(pyridin-2-yl)-4-(2,2,2-trifluoroethoxy)-5H-pyrrolo[3,2-d]pyrimidin-6-yl]pyridin-2-yl}butanamide] | > 20 | 0.014 | – |
| O=C(Nc1cc(-c2[nH]c3c(OCC(F)(F)F)ncnc3c2-c2ccccn2)ccn1)C(CC(F)F)c1ccc(F)cc1 (single isomer, unassigned) [Example 124, (2R or S)-4,4-difluoro-2-(4-fluorophenyl)-N-{4-[7-(pyridin-2-yl)-4-(2,2,2-trifluoroethoxy)-5H-pyrrolo[3,2-d]pyrimidin-6-yl]pyridin-2-yl}butanamide] | – | 2.18 | > 20 |
| O=C(Nc1cc(-c2[nH]c3c(OCC(F)(F)F)ncnc3c2-c2ccccn2)ccn1)C(CC(F)(F)F)c1ccc(F)cc1 (single isomer, unassigned) [Example 126, (2R or S)-4,4,4-trifluoro-2-(4-fluorophenyl)-N-{4-[7-(pyridin-2-yl)-4-(2,2,2-trifluoroethoxy)-5H-pyrrolo[3,2-d]pyrimidin-6-yl]pyridin-2-yl}butanamide] | > 20 | 0.02 | – |
| O=C(Nc1cc(-c2[nH]c3c(OCC(F)(F)F)ncnc3c2-c2ccccn2)ccn1)C(CC(F)(F)F)c1ccc(F)cc1 (single isomer, unassigned) [Example 127, (2R or S)-4,4,4-trifluoro-2-(4-fluorophenyl)-N-{4-[7-(pyridin-2-yl)-4-(2,2,2-trifluoroethoxy)-5H-pyrrolo[3,2-d]pyrimidin-6-yl]pyridin-2-yl}butanamide] | – | > 20 | > 20 |
| O=C(Nc1cc(-c2[nH]c3c(OCC4CC4)ncnc3c2-c2ccccn2)ccn1)C(CC(F)F)c1ccc(F)cc1 (single isomer, unassigned) [Example 129, (2R or S)—N-{4-[4-(cyclopropylmethoxy)-7-(pyridin-2-yl)-5H-pyrrolo[3,2-d]pyrimidin-6-yl]pyridin-2-yl}-4,4-difluoro-2-(4-fluorophenyl)butanamide] | 9.5 | 0.0103 | – |
